Measured values as given in BindingDB's records for doi:10.1021/acs.jmedchem.8b00890 (Beijing Institute of Pharmacology and Toxicology, 2018).
Where a SMILES comes first, the peptide text is derived from it. [ ]: non-standard residue; d: D form. The star is where a group is joined. Palmitoyl = CCCCCCCCCCCCCCCC(=O)*; βAla = NCCC(=O)O

Experiments:
[1] = Inhibition of HIV1 envelope glycoprotein-mediated cell-cell fusion between HL2/3 cells stably expressing HIV Gag, Env, Tat, Rev and Nef proteins and human TZM-bl cells stably expressing high CD4 and CCR5 incubated for 6 to 8 hrs by luciferase reporter assay
[2] = Inhibition of Ebola virus Sudan envelope glycoprotein-mediated cell entry in human HuH7 cells treated with 30 mins pre-treated pseudovirus/compopund mixture and measured after 72 hrs by luciferase reporter assay

Structure (SMILES): CCCCCCCCCCCCCCCC(=O)NCCCC[C@H](NC(=O)CCNC(=O)[C@H](CCCCN)NC(=O)[C@H](CCCCN)NC(=O)[C@H](CCC(N)=O)NC(=O)[C@@H](NC(=O)[C@H](CCC(=O)O)NC(=O)[C@H](CCC(=O)O)NC(=O)[C@@H](NC(=O)[C@H](CCCCN)NC(=O)[C@H](CCCCN)NC(=O)[C@H](CCC(N)=O)NC(=O)[C@@H](NC(=O)[C@H](CCC(=O)O)NC(=O)[C@H](CCC(=O)O)NC(=O)[C@@H](NC(=O)[C@H](CCCCN)NC(=O)[C@H](CCCCN)NC(=O)[C@H](CCC(N)=O)NC(=O)[C@@H](NC(=O)[C@H](CCC(=O)O)NC(=O)[C@H](CCC(=O)O)NC(=O)[C@@H](NC(=O)[C@H](CCCCN)NC(=O)[C@H](CCCCN)NC(=O)[C@H](CCC(N)=O)NC(=O)[C@@H](NC(=O)[C@H](CCC(=O)O)NC(=O)[C@H](CCC(=O)O)NC(=O)[C@@H](NC(=O)[C@H](CCCCN)NC(=O)[C@H](CCCCN)NC(=O)[C@H](CCC(N)=O)NC(=O)[C@@H](NC(=O)[C@H](CCC(=O)O)NC(=O)[C@H](CCC(=O)O)NC(=O)[C@@H](NC(C)=O)[C@@H](C)CC)[C@@H](C)CC)[C@@H](C)CC)[C@@H](C)CC)[C@@H](C)CC)[C@@H](C)CC)[C@@H](C)CC)[C@@H](C)CC)[C@@H](C)CC)[C@@H](C)CC)C(N)=O (Ac-IEEIQKKIEEIQKKIEEIQKKIEEIQKKIEEIQKK[βAla]K(Palmitoyl)-NH2)
- EC50 [1]: 3630 nM
- EC50 [2]: 1020 nM
